Experiments:
[1] = system: MGC-803; experiment: Cell cycle arrest in human MGC803 cells assessed as accumulation at G0/G1 phase at 12.5 uM after 24 hrs by propidium iodide staining based flow cytometry (reference value: 59.68%); type: functional
[2] = system: K562; experiment: Cytotoxicity against human K562 cells assessed as reduction in cell proliferation after 48 hrs by MTT assay; type: functional, cell-based; settings: Homo sapiens, K562, 48 h
[3] = system: MGC-803; experiment: Induction of apoptosis in human MGC803 cells assessed as early apoptotic cells at 12.5 uM after 24 hrs by Annexin V-FITC/propidium iodide staining based flow cytometry (reference value: 0.56%); type: functional
[4] = system: HL-60; experiment: Cytotoxicity against human HL60 cells assessed as reduction in cell proliferation after 48 hrs by MTT assay; type: functional, cell-based; settings: Homo sapiens, HL-60, 48 h
[5] = system: MGC-803; experiment: Cell cycle arrest in human MGC803 cells assessed as accumulation at G2/M phase at 12.5 uM after 24 hrs by propidium iodide staining based flow cytometry (reference value: 9.15%); type: functional
[6] = system: MGC-803; experiment: Induction of apoptosis in human MGC803 cells assessed as late apoptotic cells at 12.5 uM after 24 hrs by Annexin V-FITC/propidium iodide staining based flow cytometry (reference value: 0.12%); type: functional
[7] = system: HCT-116; experiment: Cytotoxicity against human HCT116 cells assessed as reduction in cell proliferation after 48 hrs by MTT assay; type: functional, cell-based; settings: Homo sapiens, HCT-116, 48 h
[8] = system: MGC-803; experiment: Induction of apoptosis in human MGC803 cells assessed as early apoptotic cells at 25 uM after 24 hrs by Annexin V-FITC/propidium iodide staining based flow cytometry (reference value: 0.56%); type: functional
[9] = system: MGC-803; experiment: Cell cycle arrest in human MGC803 cells assessed as accumulation at S phase at 12.5 uM after 24 hrs by propidium iodide staining based flow cytometry (reference value: 31.17%); type: functional
[10] = system: MGC-803; experiment: Cell cycle arrest in human MGC803 cells assessed as accumulation at G0/G1 phase at 25 uM after 24 hrs by propidium iodide staining based flow cytometry (reference value: 59.68%); type: functional
[11] = system: MGC-803; experiment: Cell cycle arrest in human MGC803 cells assessed as accumulation at S phase at 25 uM after 24 hrs by propidium iodide staining based flow cytometry (reference value: 31.17%); type: functional
[12] = system: MGC-803; experiment: Cell cycle arrest in human MGC803 cells assessed as accumulation at G2/M phase at 25 uM after 24 hrs by propidium iodide staining based flow cytometry (reference value: 9.15%); type: functional
[13] = system: NCI-H1975; experiment: Cytotoxicity against human NCI-H1975 cells assessed as reduction in cell proliferation after 48 hrs by MTT assay; type: functional, cell-based; settings: Homo sapiens, NCI-H1975, 48 h
[14] = system: MGC-803; experiment: Cell cycle arrest in human MGC803 cells assessed as accumulation at G0/G1 phase at 6.25 uM after 24 hrs by propidium iodide staining based flow cytometry (reference value: 59.68%); type: functional
[15] = system: HEK293; experiment: Cytotoxicity against HEK293 cells assessed as reduction in cell proliferation after 48 hrs by MTT assay; type: cell-based; settings: Homo sapiens, HEK293, 48 h
[16] = system: MGC-803; experiment: Induction of necrosis in human MGC803 cells at 12.5 uM after 48 hrs by Hoechst 33342/propidium iodide staining based flow cytometry (reference value: 3.73%); type: functional
[17] = system: MGC-803; experiment: Induction of apoptosis in human MGC803 cells assessed as necrotic cells at 25 uM after 24 hrs by Annexin V-FITC/propidium iodide staining based flow cytometry (reference value: 0.92%); type: functional
[18] = system: A549; experiment: Cytotoxicity against human A549 cells assessed as reduction in cell proliferation after 48 hrs by MTT assay; type: functional, cell-based; settings: Homo sapiens, A549, 48 h
[19] = Cytotoxicity against human HO8910 cells assessed as reduction in cell proliferation after 48 hrs by MTT assay; type: functional, cell-based; settings: Homo sapiens, HO-8910, 48 h
[20] = system: MGC-803; experiment: Induction of apoptosis in human MGC803 cells assessed as late apoptotic cells at 6.25 uM after 24 hrs by Annexin V-FITC/propidium iodide staining based flow cytometry (reference value: 0.12%); type: functional
[21] = system: MGC-803; experiment: Cell cycle arrest in human MGC803 cells assessed as accumulation at G2/M phase at 6.25 uM after 24 hrs by propidium iodide staining based flow cytometry (reference value: 9.15%); type: functional
[22] = system: MGC-803; experiment: Cell cycle arrest in human MGC803 cells assessed as accumulation at S phase at 6.25 uM after 24 hrs by propidium iodide staining based flow cytometry (reference value: 31.17%); type: functional
[23] = system: MGC-803; experiment: Cytotoxicity against human MGC803 cells assessed as reduction in cell proliferation after 48 hrs by MTT assay; type: functional, cell-based; settings: Homo sapiens, MGC-803, 48 h
[24] = system: MGC-803; experiment: Induction of apoptosis in human MGC803 cells assessed as necrotic cells at 6.25 uM after 24 hrs by Annexin V-FITC/propidium iodide staining based flow cytometry (reference value: 0.92%); type: functional
[25] = system: MGC-803; experiment: Induction of apoptosis in human MGC803 cells assessed as early apoptotic cells at 6.25 uM after 24 hrs by Annexin V-FITC/propidium iodide staining based flow cytometry (reference value: 0.56%); type: functional
[26] = system: MGC-803; experiment: Induction of necrosis in human MGC803 cells at 6.25 uM after 48 hrs by Hoechst 33342/propidium iodide staining based flow cytometry (reference value: 3.73%); type: functional
[27] = system: MGC-803; experiment: Induction of apoptosis in human MGC803 cells assessed as necrotic cells at 12.5 uM after 24 hrs by Annexin V-FITC/propidium iodide staining based flow cytometry (reference value: 0.92%); type: functional
[28] = system: MGC-803; experiment: Induction of apoptosis in human MGC803 cells assessed as late apoptotic cells at 25 uM after 24 hrs by Annexin V-FITC/propidium iodide staining based flow cytometry (reference value: 0.12%); type: functional
[29] = system: MGC-803; experiment: Induction of necrosis in human MGC803 cells at 25 uM after 48 hrs by Hoechst 33342/propidium iodide staining based flow cytometry (reference value: 3.73%); type: functional

## COC(=O)[C@@]12Oc3cc(C)c(-c4ccc5c(c4O)C(=O)C4=C(O)C[C@H](C)[C@@H](O)[C@]4(C(=O)OC)O5)c(O)c3C(=O)C1=C(O)CC[C@H]2O (stereo in doubt; 1)
[1]
  Activity: 25.7%
[2]
  IC50: 20.9 µM
[3]
  Activity: 0.42%
[4]
  IC50: 13.4 µM
[5]
  Activity: 37.32%
[6]
  Activity: 0.56%
[7]
  IC50: 16.2 µM
[8]
  Activity: 0.26%
[9]
  Activity: 36.98%
[10]
  Activity: 29.67%
[11]
  Activity: 22.9%
[12]
  Activity: 47.43%
[13]
  IC50: 9.8 µM
[14]
  Activity: 33.65%
[15]
  IC50: > 50 µM
[16]
  Activity: 19.29%
[17]
  Activity: 4.06%
[18]
  IC50: 17.8 µM
[19]
  IC50: 9.6 µM
[20]
  Activity: 0.17%
[21]
  Activity: 35.33%
[22]
  Activity: 31.02%
[23]
  IC50: 4.6 µM
[24]
  Activity: 1.88%
[25]
  Activity: 0.26%
[26]
  Activity: 6.97%
[27]
  Activity: 1.46%
[28]
  Activity: 0.59%
[29]
  Activity: 31.33%

Reference: ChEMBL document CHEMBL4196027, “Structure-based discovery of cytotoxic dimeric tetrahydroxanthones as potential topoisomerase I inhibitors from a marine-derived fungus” (Eur J Med Chem, 2018)
